# Reference: article PMC3606385 (PLoS ONE, 2013)
# “And” between values parts separate entries of the source, which are not always exact repeats. Equal entries are not always repeated. Where two headings read alike, the source gives them in different places.
# Tests used:
# [1] = system: rats; conditions: cited from earlier work
# [2] = target: T1, human liver 11β-HSD1 (Homo sapiens, UniProt P28845); experiment: Mode of inhibition, human liver 11β-HSD1; type: biochemical; conditions: data not shown
# T1 construct: tissue Gentest (Woburn, MA); host or cells: human liver microsomes
# Protocol: (§1) The rat testis and liver or human liver microsomes were used for 11β-HSD1 assay. 11β-HSD1 activity was performed in the microsome according to a previously described method. In brief, the assay tubes contained 25 nM substrate 11DHC (for rat) or cortisone (for human), spiked with 30,000 cpm their respective ^3H-11keto-steroid, 0.2 mM NADPH and 5 mM glucose-6-phosphaare in the PBS buffer. 2 µg microsomes were added to each tube to initiate the reaction and the reaction mixture was incubated for up to 2 hrs, during which the reaction is within the linear range. The rest procedure was similar to 11β-HSD1 assay in intact cells.
# (§2) The IC50 was determined by adding different concentrations of each compound in the 11β-HSD1 or 11β-HSD2 reaction as described. The mode of inhibition was assayed by adding various concentrations of steroid substrates in the presence of an inhibitor as described.
# (§3) Enzyme data were subjected to nonlinear analysis by GraphPad (Version 5, GraphPad Software Inc., San Diego, CA) for IC50. Lineweaver-Burk plot was used for the mode of inhibition. Data were subjected to analysis by one-way ANOVA followed by Tukey's multiple comparisons testing to identify significant differences between groups when three were calculated. Differences were regarded as significant at P<0.05.
# [3] = target: T2, rat liver microsomal 11β-HSD1 (Rattus norvegicus, UniProt P16232); experiment: Mode of inhibition (Lineweaver-Burk), rat liver microsomal 11β-HSD1; type: biochemical; conditions: Lineweaver-Burk plot, substrate 11DHC
# T2 construct: Rat liver, testis and kidney microsomes were prepared as described previously; from tissue; host or cells: rat liver microsomes
# Protocol: as §1, §2, §3
# [4] = system: diabetic rats; conditions: normal or high fat diet; cited from earlier work
# [5] = target: T3, Rat 11β-HSD1 (Rattus norvegicus, UniProt P16232); experiment: 11β-HSD1 assay in intact rat Leydig cells; type: cell-based
# T3 construct: endogenous in cells; host or cells: primary adult Sprague-Dawley rat Leydig cells
# Protocol: Rat Leydig cells contain the highest 11β-HSD1 activity in all cell types of rat tissues, and were used for rat 11β-HSD1 enzyme sources. Purified rat Leydig cells were obtained from 90-day-old Sprague-Dawley rats by collagenase digestion of the testes followed by Percoll density centrifugation of the cell suspension, according to the previously described method. […] The purity of cell fractions was evaluated by histochemical staining for 3β-hydroxysteroid dehydrogenase activity with […] etiocholanolone as the steroid substrate.
# 11β-HSD1 reductase activity was performed in intact cells using endogenous cofactor NADPH as described previously. […] 25×10^3 cells were added to each tube to initiate the reaction and the reaction mixture was incubated for up to 2 hrs, during which the reaction is within the linear range. At the end of reaction, the reaction was stopped by adding 2 ml ice-cold ether. The steroids were extracted, and the organic layer was dried under nitrogen. The steroids were separated chromatographically on thin layer plates in chloroform and methanol (90∶10, v/v), and the radioactivity was measured using a scanning radiometer (System AR2000, Bioscan Inc., Washington, DC) as described previously. The percentage conversion of 11DHC to CORT or cortisone to cortisol was calculated by dividing the radioactive counts identified as 11-OH-steroids by the total counts.
# as §2
# T3 sequence (P16232 whole entry): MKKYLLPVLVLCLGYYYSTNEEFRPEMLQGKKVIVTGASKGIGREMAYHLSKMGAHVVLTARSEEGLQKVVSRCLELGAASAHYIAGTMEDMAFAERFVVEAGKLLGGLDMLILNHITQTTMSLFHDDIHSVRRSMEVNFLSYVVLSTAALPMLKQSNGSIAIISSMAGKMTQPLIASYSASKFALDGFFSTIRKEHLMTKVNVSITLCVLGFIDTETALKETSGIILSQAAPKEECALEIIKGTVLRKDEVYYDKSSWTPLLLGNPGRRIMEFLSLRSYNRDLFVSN
# T2 sequence (P16232 whole entry): as above
# T1 sequence (P28845 whole entry): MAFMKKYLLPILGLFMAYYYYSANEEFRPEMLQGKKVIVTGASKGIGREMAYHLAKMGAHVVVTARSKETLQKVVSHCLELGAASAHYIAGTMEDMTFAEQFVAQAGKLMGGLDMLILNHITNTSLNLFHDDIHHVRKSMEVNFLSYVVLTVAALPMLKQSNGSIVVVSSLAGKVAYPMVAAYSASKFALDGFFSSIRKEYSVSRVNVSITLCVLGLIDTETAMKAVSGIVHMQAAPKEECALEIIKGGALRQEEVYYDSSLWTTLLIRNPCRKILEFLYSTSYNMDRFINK
compound,measurement,setting,value
"COc1cc(/C=C/C(=O)CC(=O)/C=C/c2ccc(O)c(OC)c2)ccc1O [1 (Curcumin), Curcumin]",Effect on serum and liver cholesterol levels,[1],lowered
same,Mode of inhibition of human 11β-HSD1,[2],competitive inhibitor
same,Mode of inhibition of rat 11β-HSD1,[3],competitive inhibitor
same,Effect on serum Tg,[4],remarkably reduced
same,Effect on serum cholesterol,[4],remarkably reduced
same,IC50,"[5]; intact adult rat Leydig cells, read-out: IC50 rat 11β-HSD1 in intact cells",5790 nM and 2290 nM and 2000 to 6000 nM
same,IC50,"[5]; intact rat Leydig cells, read-out: Rat 11β-HSD1 IC50 (nM) in Leydig cells",5790 nM
